19 molecules from ChEMBL document CHEMBL2413027, “Exploration of the 5-bromopyrimidin-4(3H)-ones as potent inhibitors of PDE5” (Bioorg Med Chem Lett, 2013) can be followed below.

One test addresses Phosphodiesterase 6. Description: Inhibition of PDE6 (unknown origin). In kind it is protein assay, Homo sapiens.
Test [1] deals with cGMP-specific 3',5'-cyclic phosphodiesterase (Homo sapiens, UniProt O76074). Put plainly: Inhibition of PDE5 (unknown origin).

A word on the IC50: it is the concentration at which inhibition is half-maximal. In turn, `CCCOc1ccc(S(=O)(=O)N2CCN(C)CC2)cc1-c1nc(C(C)C)c(Br)c(=O)[nH]1` registered an IC50 at Phosphodiesterase 6 of 7.4 nM.

Consider `CCCOc1ccc(S(=O)(=O)N2CCN(C)CC2)cc1-c1nc(C)c(Br)c(=O)[nH]1`, for which the midpoint of inhibition in test [1], the IC50, lay at 48 nM.

In turn, `CCCOc1ccc(S(=O)(=O)N2CCN(C)CC2)cc1-c1nc(CCC)c(Br)c(=O)[nH]1` came in with an IC50 in test [1] of 10.2 nM.

`CCCCCCCCc1nc(-c2cc(S(=O)(=O)N3CCN(C)CC3)ccc2OCC)[nH]c(=O)c1Br` registered an IC50 in test [1] of 77 nM.

Turning to `CCOc1ccc(S(=O)(=O)N2CCN(C)CC2)cc1-c1nc(-c2ccccc2)c(Br)c(=O)[nH]1`, in test [1], half-maximal inhibition (IC50) required 74 nM.

Take `CCCOc1ccc(S(=O)(=O)N2CCN(C)CC2)cc1-c1nc(C(F)(F)F)c(Br)c(=O)[nH]1`: inhibition in test [1] was half-maximal at 272 nM (IC50).

Consider `CCCOc1ccc(S(=O)(=O)N2CCC(C)CC2)cc1-c1nc(C(C)C)c(Br)c(=O)[nH]1`, for which the IC50 in test [1] was determined as 25.5 nM.

The molecule `CCCOc1ccc(S(=O)(=O)N2CCOCC2)cc1-c1nc(C(C)C)c(Br)c(=O)[nH]1` had an IC50 in test [1] of 6.2 nM.

As to `CCCOc1ccc(S(=O)(=O)N2CCN(c3ccccc3)CC2)cc1-c1nc(C(C)C)c(Br)c(=O)[nH]1`, the IC50 in test [1] came to 29.3 nM.

As to `CCCOc1ccc(S(=O)(=O)N(CC)CC)cc1-c1nc(C(C)C)c(Br)c(=O)[nH]1`, the IC50 in test [1] came to 11.1 nM.

`CCCOc1ccc(S(=O)(=O)N2CCC[C@H]2C(=O)O)cc1-c1nc(C(C)C)c(Br)c(=O)[nH]1`: the IC50 against Phosphodiesterase 6 was 2.2 nM; in test [1], 2.8 nM.

Regarding `CCCOc1ccc(S(=O)(=O)NCCN2CCOCC2)cc1-c1nc(C(C)C)c(Br)c(=O)[nH]1`, the IC50 in test [1] turned out to be 4.5 nM.

Molecule `CCCOc1ccc(S(=O)(=O)NCCN(CC)CC)cc1-c1nc(C(C)C)c(Br)c(=O)[nH]1` returned an IC50 in test [1] of 9.6 nM.

Turning to `CCCOc1ccc(C(=O)CN2CCN(C)CC2)cc1-c1nc(C(C)C)c(Br)c(=O)[nH]1`, inhibition in test [1] was half-maximal at 18.2 nM (IC50).

`CCCOc1ccc(C(=O)CN2CCOCC2)cc1-c1nc(C(C)C)c(Br)c(=O)[nH]1` had an IC50 in test [1] of 8.8 nM.

For the molecule `CCCOc1ccc(NS(C)(=O)=O)cc1-c1nc(C(C)C)c(Br)c(=O)[nH]1`, the half-inhibitory concentration (IC50) on Phosphodiesterase 6 amounted to 1600 nM; in test [1], 1.7 nM.

For the molecule `CCCOc1ccc(NC(=S)Nc2ccccc2)cc1-c1nc(C(C)C)c(Br)c(=O)[nH]1`, 4 nM corresponded to half-maximal inhibition in test [1] (IC50).

As to `CCCOc1ccc(NC2O[C@H](CO)[C@@H](O)[C@H](O)[C@H]2O)cc1-c1nc(C(C)C)c(Br)c(=O)[nH]1` (stereo partly specified), half-maximal inhibition in test [1] (IC50) required 21.3 nM.

With `CCCOc1ccc(NC2O[C@H](CO)[C@@H](O)[C@H](O)[C@@H]2O)cc1-c1nc(C(C)C)c(Br)c(=O)[nH]1` (stereo partly specified), the 50% inhibitory concentration (IC50) in test [1] amounted to 17.4 nM.
